Assay results taken from patent US20190307754A1, “PDE9 INHIBITORS FOR TREATMENT OF PERIPHERAL DISEASES” (IMARA, INC., priority 2016, published 2019).
pIC50: −log10 of the molar value.

Assays:
[1] = system: C57Bl/6J mice; assay: Locomotor activity and contextual fear conditioning in C57Bl/6J mice; type: in vivo; conditions: gavage, 5 days
Procedure: The exposure of both compounds was also evaluated in the plasma, brain, and eye. […] During the treatment period all animals were assessed for contextual fear conditioning and a subset of 7 animals per group was evaluated for locomotor activity. On Day 5, plasma, brain, and eye tissue were collected 30 minutes after dosing from 3 animals per treated group to measure concentrations of test item.

[2] = system: PDE1; assay: PDE1 inhibition assay; type: biochemical
Procedure: Reactions were initiated by addition of the cyclic nucleotide substrate, and reactions were allowed to proceed for 1 h at room temperature before being terminated through mixing with 20 μL (0.2 mg) yttrium silicate SPA beads (PerkinElmer).

[3] = system: K562 erythroleukemic cells; assay: cGMP in cultured K562 cells; type: cell-based; conditions: 16 hours
Procedure: Hydroxyurea was included as a comparator as it is currently the only FDA approved treatment for this disease (Charache et al., N Engl J Med., 332(20):1317-22. (1995)). One of the proposed mechanisms of action of HU in SCD is that it may generate NO and modulation of intracellular levels of the NO second messenger, cGMP, may represent an effective and cell-specific approach for amplifying intracellular NO-dependent signaling.
K562 cells were cultured at 37° C. in IMDM® to which the required concentrations of test items or dimethyl sulfoxide (DMSO; negative Control) had been added. Plated cells were maintained at 37° C. for 16 hours at the end of which the amount of cGMP was detected by enzyme immunoassay.

[4] = system: TNF-α activated human endothelial cells; assay: Micro-channel PMN adhesion assay under flow (FIG. 9); type: cell-based
Description: In this study, the effects of Compound P3.1 on PMN adhesion to TNF-α activated human endothelial cell monolayers under flow conditions are investigated. It has been validated in vitro dynamic assay mimics neutrophil recruitment to endothelial cell monolayers under inflammatory conditions (TNF-α activation). In this assay, both control and sickle PMNs adhere to endothelial cells but to different degrees, reflecting in vivo conditions. The human dermal microvascular endothelial cell line HMEC-1 is used in this approach. The potential inhibitory effect of Compound P3.1 is tested in parallel and compared with the effect of HU and other PDE9 inhibitors.
In a first step, the effects of 1 uM Compound P3.1 and 10 uM HU were tested by incubating blood samples from healthy volunteers (n=3-6) (i.e., donors or donor cells) with these molecules.
Adhesion of PMNs from healthy volunteers was assessed under flow conditions, mimicking blood flow, in micro channels (Venaflux, Cellix, Ireland) coated with endothelial cell monolayers cultivated under inflammatory conditions. The adhesion assay was performed with whole fresh blood, previously incubated or not with Compound P3.1, to be closer to the physiological condition of circulation in a person, and to study the interaction between the different blood cells with PMNs.

[5] = system: TNF-α activated endothelium; assay: Micro-channel assay of platelet, PMN and RBC binding (FIG. 10); type: cell-based, human; conditions: Compound P3.1 2 or 3 hours, HU 3 hours; bound cells at 30 min
Procedure: In another assay, using the same method, the reduction of PMN and RBC bindings to TNF-α activated endothelium in a micro channel well was confirmed. Platelet, PMN, and RBC in blood samples from 5 healthy normal volunteers (donors) were labelled with fluorescent dyes. The blood samples were incubated with Compound P3.1 for 2 hours or 3 hours, or HU for 3 hours, prior to running them on micro channels that were previously coated with endothelial cells activated with TNF-α. The % of bound cells was quantified at 30 min. Results are shown in FIG. 10A, FIG. 10B, and FIG. 10C.

[6] = system: K562 erythroleukemic cells; assay: HbF in cultured K562 cells; type: cell-based; conditions: 3 days
Procedure: K562 cells were cultured at 37° C. in IMDM® to which the required concentrations of test items or DMSO (negative control) had been added. Plated cells were maintained at 37° C. for 3 days at the end of which the presence of HbF within cells was detected by flow cytometry.

[7] = system: HbSS-Townes mice; assay: Microvascular stasis and hematology in HbSS-Townes mice; type: in vivo
Procedure: The ability of Compound P3.1 to reduce vaso-occulsion was assessed in HbSS-Townes transgenic sickle mice after transient hypoxia and re-oxygenation. This study assessed the effects of repeated (10 days) oral dosing of Compound P3.1 and HU on microvascular stasis and other hematological markers of sickle cell disease, after transient hypoxia and re-oxygenation, in Townes transgenic sickle mice, a mouse model of sickle cell disease (Hba^tm1(HBA)Tow Hbb^tm2(HBG1,HBB*)Tow/Hbb^tm3(HBG1,HBB)Tow/J). HbSS-Townes mice were divided into groups of 3 mice and were then dosed orally via drinking water with Compound P3.1 at 10 mg/kg/day, Compound P3.1 at 30 mg/kg/day, HU (100 mg/kg/day), or a combination of Compound P3.1 and HU (at doses of 30 and 100 mg/kg/day, respectively) for 10 days. A final group received water containing 0.08% methylcellulose, the vehicle used to prepare the test items, and served as controls. On Day 7 of treatment, the mice were implanted with dorsal skin-fold chambers (DSFC), and on Day 10 of treatment, 20-23 flowing subcutaneous venules in the DSFC window were selected and mapped. After venule selection and mapping, mice were placed in a chamber and exposed to a hypoxic atmosphere (7% O2/93% N2) for 1 hour, after which they were returned to room air. All of the selected venules were re-examined after 1 and 4 hours of re-oxygenation in room air and the number of static (no flow) venules was counted and expressed as percent stasis. On completion of these measurements, blood was collected for clinical pathology with a focus on hematological measures associated with sickle cell disease.

[8] = system: CD34+ derived red blood cells from SCD subjects; conditions: 5 days
[9] = system: Berkeley sickle cell transgenic mice; assay: HbF positive and sickled red blood cells in Berkeley sickle cell transgenic mice; type: in vivo; conditions: 30 mg/kg/day Compound P3.1 or 100 mg/kg/day HU, gavage, 30 days
Procedure: This study assessed the effects of chronic dosing (30 day) of Compound P3.1 and HU on HbF and cell sickling in a mouse model of sickle cell disease. Berkeley sickle cell transgenic mice (Hbatm1PazHbbtm1Tow Tg(HBA-HBBs)41Paz/J) were divided into groups of 7 to 8 animals and were dosed once daily, by gavage, for 30 days with either vehicle (PEG:water), 30 mg/kg/day of Compound P3.1, or 100 mg/kg/day of HU. This mouse genotype mimics the genetic, hematologic and histopathologic features that are found in humans afflicted with sickle cell anemia, including irreversibly sickled RBCs, anemia and multi-organ pathology. Blood was collected from treated animals on Day 30 for limited routine hematology as well as derivation of the percent of sickled and HbF positive RBCs and total bilirubin. At termination, the spleen was removed and weighed.

[10] = Compound P3.1 30 mg/kg/day, HU 100 mg/kg/day, or both, 10 days

C[C@@H]1CN(Cc2ncccn2)C[C@H]1c1nc2c(cnn2C2CCOCC2)c(=O)[nH]1 (single isomer, unassigned) [AF27873]
conditioned freezing vs vehicle controls ([1]; 10 mg/kg/day): significantly (p<0.05) more conditioned freezing | conditioned freezing vs vehicle controls ([1]; 30 mg/kg/day): not observed | pIC50 [2]: 5.60

NC(=O)NO [Hydroxyurea, reference compound]
effect on cGMP levels [3]: dose-dependent and statistically significant increases in cGMP levels | adhesion of high-binding donor cells ([4]; 1 uM Compound P3.1 or 10 uM HU, whole blood of healthy volunteers): reduced the binding of 2 of 3 of the high binding donors | toxicity to donor samples ([4]; 10 uM HU): 3 of 9 of the donor samples did not survive HU treatment | platelet binding [5]: did not impact platelet binding | HbF positive cells ([6]; 100 μM): 92.6% | effect on HbF-positive cells by concentration [6]: statistically significant increases in HbF-positive cells at concentrations of 10 μM and above (but not at 1 and 3 μM) | microvascular stasis ([7]; 30 mg/kg/day Compound P3.1 or 100 mg/kg HU, drinking water, 10 days, 1 and 4 hours post hypoxia): statistically significant reductions in stasis | total WBC numbers ([7]; Compound P3.1 30 mg/kg/day or HU 100 mg/kg/day, 10 days): reduce total WBC numbers | vessel occlusion induced by transient hypoxia and re-oxygenation ([7]; Compound P3.1 30 mg/kg/day, HU 100 mg/kg/day, or both): effectively reduced | number of HbF positive red cells [7, 10]: increase the number of HbF positive red cells | proportion of sickled RBCs [7, 10]: reduce the proportion of sickled RBCs | amount of HbF within cells (mean MFI) ([8]; 30 μM HU, remaining 3 subjects): 19,383 | mean MFI of HbF relative to controls ([8]; 30 μM HU, remaining 3 subjects): 258% | percentage of HbF positive CD36+ cells (mean) ([8]; 30 μM HU, remaining 3 subjects): 23.9% | cell death ([8]; human, 30 μM): greater than 80% | viability ([8]; human, 30 μM): < 80% | RBC count, hemoglobin concentration or hematocrit [9]: not associated with any apparent alterations | neutrophil levels [9]: reduced neutrophil levels | spleen weight [9]: statistically significant decreases | total bilirubin [9]: statistically significant decreases | total leucocyte count [9]: statistically significant decreases | percentage of HbF positive RBCs ([9]; vs controls): increases in the percentage of HbF positive RBCs | percentage of sickled RBCs ([9]; vs controls): statistically significant decreases in the percentage of sickled RBCs
